What all share (format): physicochemical
The nature of data set [1]: Dissolution of amoxicillin particles in simulated gastric fluid. The method, then:
(§1) The particles were subjected to dissolution tests in simulated gastric fluid (SGF) at pH 1.2 simulated intestinal fluid (SIF) at pH 6.8. The SGF and SIF were prepared per USP specs (USP XXII-NF XVII, pp. 1788-1789, 1990). Selected samples were also tested in SGF at pH 5.0, in pH 1.2 and 5.0 acids, and in pH 6.8 buffer. The pH 1.2 and 5.0 acids were prepared the same way as the corresponding SGF's, except no enzymes were added. Similarly, the pH 6.8 buffer was prepared the same way as the SIF, except no enzyme was added. The dissolution test was conducted using apparatus 2 assembly, as specified by USP (USP XXII-NF XVII, pp. 1578-1579, 1990). The nominal capacity of the dissolution vessel was 1000 mL. A peddle was used as the stirring element at a rotational speed of 50 rpm. The temperature was maintained at 37°+0.5° C. using a circulating water bath. The solution was sampled at 0.5, 1, and 2 hours for the test in SGF, and at 1, 3, and 6 hours for the test in SIF. A 10-mL aliquot was drawn at each sampling time through a 35 micron filter. […] The particles manufactured in this example were subjected to dissolution testing as described in Example 1. Selected particle samples were subjected to sequential dissolution testing as described in Example 2. […] The column was C-18. […] The detector was UV at 230 nm. A pure amoxicillin trihydrate (AMX1), which was calibrated with an USP reference standard, was used as the working standard. For dissolution sample analysis, the standard was dissolved in the mobile phase. For zein-coated drug analysis, both the sample and the standard were dissolved by mixing with 5 mL methanol for 2-5 minutes and then diluting with the mobile phase to the desired level.

Data set [2] in a line: Dissolution of amoxicillin particles in simulated intestinal fluid. The method, then:
as §1

The nature of data set [3]: Suspension stability study: amoxicillin released in syrup. The note with it: 30° C. The method, then: Samples of particles having each of the structure from Table 11 were suspended at a concentration of 250 mg amoxicillin per 5 ml in sucrose-based syrups adjusted to different pH's, the formulations of these syrups are set forth in Table 12, were stored at 30° C. and shaken daily. Samples were removed for testing at 1 hours, 1 day, 7 days and 14 days. Encapsulated drug and undissolved particulate matter were removed from the suspensions by filtration through a 35 micron filter. The clarified syrups were diluted with mobile phase of pH 5.0 potassium phosphate buffer containing 4% acetonitrile and filtered again through a 0.45 micron filter prior to analysis by high pressure liquid chromatography (HPLC). The method of quantitating the amount of amoxicillin released in the syrup solutions was adapted from the USP method for amoxicillin described on pages 2088-2089 of Supplement 1 in USP XXII-NF XVII.

Data set [4] in a line: Dissolution of acetaminophen (APAP) particles in simulated intestinal fluid (USP apparatus 2). The method, then: (§2) The particles were subjected to dissolution tests in simulated gastric fluid (SGF) at pH 1.2 simulated intestinal fluid (SIF) at pH 6.8. The SGF and SIF were prepared per USP specs (USP XXII-NF XVII, pp. 1788-1789, 1990). Selected samples were also tested in SGF at pH 5.0, in pH 1.2 and 5.0 acids, and in pH 6.8 buffer. The pH 1.2 and 5.0 acids were prepared the same way as the corresponding SGF's, except no enzymes were added. Similarly, the pH 6.8 buffer was prepared the same way as the SIF, except no enzyme was added. The dissolution test was conducted using apparatus 2 assembly, as specified by USP (USP XXII-NF XVII, pp. 1578-1579, 1990). The nominal capacity of the dissolution vessel was 1000 mL. A peddle was used as the stirring element at a rotational speed of 50 rpm. The temperature was maintained at 37°+0.5° C. using a circulating water bath. The solution was sampled at 0.5, 1, and 2 hours for the test in SGF, and at 1, 3, and 6 hours for the test in SIF. A 10-mL aliquot was drawn at each sampling time through a 35 micron filter. The aliquot was then filtered again through a 0.45 micron filter for HPLC analysis to determine its drug content. An HPLC method was developed for the determination of acetaminophen in zein-coated powders and in dissolution samples from various media. Zein-coated powders were dissolved in methanol for analysis. An acetaminophen USP reference standard was used for the quantitation. For zein-coated drug analysis, the standard was prepared in methanol. For dissolution sample analysis, the standard was prepared in water. Each sample or standard solution was then filtered through a 0.45 micron filter for HPLC analysis. A C-18 column connected with an UV detector at 244 nm was used for the HPLC analysis. The mobile phase was water/methanol (85/15, v/v) at a flow rate of 1.0 mL/min. The analysis time was 18-20 min/injection.

A short description of data set [5]: Dissolution of acetaminophen (APAP) particles in simulated gastric fluid (USP apparatus 2). The method, then: as §2
Data set [6] can be described thus: Suspension stability study: APAP released in syrup. From the text: The concept that stability in an aqueous suspension is primarily controlled by the exterior coating layer is supported by studies performed on acetaminophen (APAP). Acetaminophen was coated with various combinations of zein and Eudragit®. […] The composition of these syrups was similar to those used for the amoxicillin suspensions (compare Tables 12 and 14). A description of the manufacture of the APP27 particles is set forth above in Example 3; for APP32 particles in Example 3; for APP42 particles in Example 5; and for APP46 particles in Example 5. The particles identified in the tables as as "APAP" are uncoated acetaminophen. APP27 and 32 were suspended at 250 mg per 5 ml in a syrup at pH 8.1 and APP42 and 46 were each suspended at the same concentration in syrups at both pH 5.0 and 8.1 respectively. For analysis of samples in sucrose-based syrups, the samples were diluted 50-400 folds with water and then filtered through a 0.45 micron filter for HPLC analysis. The dilution was necessary for proper UW detection and to minimize the effect of matrix on column performance. The methanol content of the aqueous mobile phase was adjusted between 2 and 15%, pending the performance of the C-18 column used.

The values below come from US5160742A, “System for delivering an active substance for sustained release” (Abbott Laboratories, priority 1991, dated 1992).

Molecules are shown by their SMILES.

As for `CC1(C)S[C@@H]2[C@H](NC(=O)[C@H](N)c3ccc(O)cc3)C(=O)N2[C@H]1C(=O)O` [AMX23, amoxicillin], the “Cumulative % Release of Amoxicillin, 0.5 hr” value in data set [1] (In SGF, pH 1.2, 0.5 hr) is 53%. Also, the “Cumulative % Release of Amoxicillin, 1 hr” value was 45% in data set [1] (In SGF, pH 1.2, 1 hr) and 83% in data set [2] (In SIF, pH 6.8, 1 hr). In addition, the “Cumulative % Release of Amoxicillin, 2 hr” value in data set [1] (In SGF, pH 1.2, 2 hr) is recorded as 36%. Also, in data set [1] (SGF pH 1.2), the “release of amoxicillin in simulated gastric fluid (in words)” value is listed as “rapid release”. Also, in data set [2] (In SIF, pH 6.8, 3 hr), the “Cumulative % Release of Amoxicillin, 3 hr” value is reported as 91%. For the same compound, the “Cumulative % Release of Amoxicillin, 6 hr” value in data set [2] (In SIF, pH 6.8, 6 hr) is listed as 93%. Further, in data set [2] (SIF pH 6.8), the “release of amoxicillin in simulated intestinal fluid (in words)” value is on record as “quite rapidly”.
Regarding `CC1(C)S[C@@H]2[C@H](NC(=O)[C@H](N)c3ccc(O)cc3)C(=O)N2[C@H]1C(=O)O` [AMX1, amoxicillin trihydrate], the “Percent Amoxicillin Released in Syrup” value amounted to 9.3% in data set [3] (Syrup at pH 5.0, 1 Day); 7.4% in data set [3] (Syrup at pH 5.0, 1 Hr); 11.3% in data set [3] (Syrup at pH 5.0, 7 Days); 9.0% in data set [3] (Syrup at pH 5.0, 14 Days); 9.6% in data set [3] (Syrup at pH 6.5, 1 Day); 8.6% in data set [3] (Syrup at pH 6.5, 1 Hr). Further, the “Percent Amoxicillin Released in Syrup” value is listed as 14.6% in data set [3] (Syrup at pH 6.5, 7 Days); 10.9% in data set [3] (Syrup at pH 6.5, 14 Days); 2.8% in data set [3] (Syrup at pH 8.5, 1 Day); 19.5% in data set [3] (Syrup at pH 8.5, 1 Hr); 9.6% in data set [3] (Syrup at pH 8.5, 7 Days); 5.7% in data set [3] (Syrup at pH 8.5, 14 Days).
For `CC(=O)Nc1ccc(O)cc1` [APP21, Acetaminophen], the “Cumulative % Release of APAP, 1 hr” value is reported as 98% in data set [4] (In SIF, pH 6.8, 1 hr) and 97% in data set [5] (In SGF, pH 1.2, 1 hr). For the same compound, the “Cumulative % Release of APAP, 3 hr” value in data set [4] (In SIF, pH 6.8, 3 hr) is listed as 101%. Besides, in data set [4] (In SIF, pH 6.8, 6 hr), the “Cumulative % Release of APAP, 6 hr” value was 102%. In addition, the “release of APAP in simulated intestinal fluid (in words)” value in data set [4] (SIF pH 6.8) is given as “dissolved fairly rapidly”. Besides, the “Cumulative % Release of APAP, 0.5 hr” value in data set [5] (In SGF, pH 1.2, 0.5 hr) is 97%. Besides, in data set [5] (In SGF, pH 1.2, 2 hr), the “Cumulative % Release of APAP, 2 hr” value is 98%. In addition, in data set [5] (SGF pH 1.2), the “release of APAP in simulated gastric fluid (in words)” value was “dissolved in gastric fluid very quickly”.
For the compound `CC(=O)Nc1ccc(O)cc1` [APAP, acetaminophen], the “Percent APAP Released in Syrup” value amounted to 20.0% in data set [6] (Table 15, syrup at pH 8.1, 1 Hr); 23.0% in data set [6] (Table 15, syrup at pH 8.1, 28 Days); 31.9% in data set [6] (Table 16, syrup pH 5.0, 1 Day); 20.2% in data set [6] (Table 16, syrup pH 5.0, 1 Hr); 26.5% in data set [6] (Table 16, syrup pH 5.0, 7 Days); 24.9% in data set [6] (Table 16, syrup pH 5.0, 14 Days). The “Percent APAP Released in Syrup” value in data set [6] (Table 16, syrup pH 8.1, 1 Day) is given as 27.5%; in data set [6] (Table 16, syrup pH 8.1, 1 Hr), 7.7%; in data set [6] (Table 16, syrup pH 8.1, 7 Days), 29.8%; in data set [6] (Table 16, syrup pH 8.1, 14 Days), 28.0%.
